From patent US5498775A, “Polyanionic benzylglycosides as inhibitors of smooth muscle cell proliferation” (American Home Products Corporation, priority 1994, dated 1996)
Where a name gives a salt, the structure may show the parent alone.

Tests used:
normal human plasma = assay: Anticoagulant activity, partial thromboplastin time (APTT) assay; type: biochemical; conditions: for Anticoagulation Activity (APTT) Relative to Heparin: ratio >1 indicates weaker activity relative to heparin on a μg/mL comparison
Description: A BBL Fibrometer automatic precesion coagulation timer utilizing a 0.3 mL probe was employed. An Ellagic acid activated partial thromboplastin was used for these experiments. This reagent was added to human citrated plasma equilibrated at 37° C. in a plastic well in the clot timer. Calcium at 37° C. was added, the clot timer was started and the time for fibrin clot formation (in seconds) was recorded. […] Clotting tests at all concentrations were run in triplicate. Analysis of variance for a randomized block design was used to determine the significance of differences observed in the clotting times.

human endothelial cell = assay: Effect on endothelial cell growth vs. smooth muscle cell proliferation; type: cell-based; conditions: driven by 2% FBS, at doses inhibitory towards human SMC proliferation driven by 10% FBS; FIG. 1
From the text: The ability of the compounds of the present invention to inhibit smooth muscle cell proliferation and modulate endothelial cell growth was established using isolated aortic cells obtained from commercial sources or, for certain species, prepared in-house. Cell lines used in this study include human and porcine aortic smooth muscle cells and human aortic endothelial cells. Human aortic cell lines were obtained from Clonetics Corporation (San Diego).
B. Effects of compounds on cell proliferation using ^3 H Thymidine incorporation
Cells were assayed in early passage (generally passage 3-7) at sub-confluent conditions. Cultures were grown in 16 mm (24 well) multi-well culture dishes in media 199 supplemented with 10% fetal bovine serum and 2% antibiotic/antimycotic. At sub-confluence, the cells were placed in a defined serum free medium (AIM-V; Gibco) for 24-48 h prior to initiating the experimental protocol.
Growth factor and serum stimulations were optimized for each cell type.
Compounds were added to each well at 50 fold dilution (20 μL/well) and the plates were incubated for 24-36 h at 37° C. in 5% CO2. […] Compounds were routinely assayed at 1, 10, and 100 μM. […]
Data was obtained, in triplicate, for both control and experimental samples. […] Data was expressed as a percent of control from which IC50 s could be determined. […]

[1] = tested on: Porcine Smooth Muscle Cell; assay: Porcine smooth muscle cell antiproliferation, 3H thymidine incorporation; type: cell-based; conditions: for IC50: porcine aortic smooth muscle cells, 3H thymidine incorporation
Description: Cells were assayed in early passage (generally passage 3-7) at sub-confluent conditions. […] At sub-confluence, the cells were placed in a defined serum free medium (AIM-V; Gibco) for 24-48 h prior to initiating the experimental protocol.
At the completion of the experiment, plates were placed on ice, washed three times with ice cold PBS and incubated in ice cold 10% trichloroacetic acid (TCA) for 30 min to remove acid soluble proteins. Solution was transferred to scintillation vials containing 0.4N HCl (500 μL/vial to neutralize NaOH) and each well was rinsed two times with water (500 μL) for a total volume of 2 mL/vial.
Data was obtained, in triplicate, for both control and experimental samples. […] Experimental data was obtained from cells maximally stimulated with growth factor or serum and treated with compound. Data was expressed as a percent of control from which IC50 s could be determined.

Compound	Anticoagulation Activity (APTT) Relative to Heparin (normal human plasma)	further results
O=C(Nc1cc(CO[C@@H]2O[C@H](COS(=O)(=O)O)[C@@H](OS(=O)(=O)O)[C@H](OS(=O)(=O)O)[C@H]2OS(=O)(=O)O)cc(CO[C@@H]2O[C@H](COS(=O)(=O)O)[C@@H](OS(=O)(=O)O)[C@H](OS(=O)(=O)O)[C@H]2OS(=O)(=O)O)c1)c1ccc(-c2ccc(C(=O)Nc3cc(CO[C@@H]4O[C@H](COS(=O)(=O)O)[C@@H](OS(=O)(=O)O)[C@H](OS(=O)(=O)O)[C@H]4OS(=O)(=O)O)cc(CO[C@@H]4O[C@H](COS(=O)(=O)O)[C@@H](OS(=O)(=O)O)[C@H](OS(=O)(=O)O)[C@H]4OS(=O)(=O)O)c3)cc2)cc1 [EXAMPLE 17, Biphenyl-4,4'-dicarboxylic Acid Bis{[3,5-bis(tetra-O-sulfato-β-D-glucosyloxymethyl)phenyl]amide}Hexadecasodium Salt]		Anticoagulation Activity (APTT), result in words (normal human plasma; at 50 μg/mL): insignificant activity
O=C(Nc1cc(CO[C@@H]2O[C@H](COS(=O)(=O)O)[C@@H](O[C@@H]3O[C@H](COS(=O)(=O)O)[C@@H](OS(=O)(=O)O)[C@H](OS(=O)(=O)O)[C@H]3OS(=O)(=O)O)[C@H](OS(=O)(=O)O)[C@H]2OS(=O)(=O)O)cc(CO[C@@H]2O[C@H](COS(=O)(=O)O)[C@@H](O[C@@H]3O[C@H](COS(=O)(=O)O)[C@@H](OS(=O)(=O)O)[C@H](OS(=O)(=O)O)[C@H]3OS(=O)(=O)O)[C@H](OS(=O)(=O)O)[C@H]2OS(=O)(=O)O)c1)c1ccc(-c2ccc(C(=O)Nc3cc(CO[C@@H]4O[C@H](COS(=O)(=O)O)[C@@H](O[C@@H]5O[C@H](COS(=O)(=O)O)[C@@H](OS(=O)(=O)O)[C@H](OS(=O)(=O)O)[C@H]5OS(=O)(=O)O)[C@H](OS(=O)(=O)O)[C@H]4OS(=O)(=O)O)cc(CO[C@@H]4O[C@H](COS(=O)(=O)O)[C@@H](O[C@@H]5O[C@H](COS(=O)(=O)O)[C@@H](OS(=O)(=O)O)[C@H](OS(=O)(=O)O)[C@H]5OS(=O)(=O)O)[C@H](OS(=O)(=O)O)[C@H]4OS(=O)(=O)O)c3)cc2)cc1 [EXAMPLE 15, Biphenyl-4,4'-dicarboxylic Acid Bis{[3,5-bis(hepta-O-sulfato-β-D-cellobiosyloxymethyl)phenyl]amide}Octacosasodium Salt]	2.0-2.3	
O=C(Nc1cc(CO[C@@H]2O[C@H](COS(=O)(=O)O)[C@@H](O[C@H]3O[C@H](COS(=O)(=O)O)[C@@H](OS(=O)(=O)O)[C@H](OS(=O)(=O)O)[C@H]3OS(=O)(=O)O)[C@H](OS(=O)(=O)O)[C@H]2OS(=O)(=O)O)cc(CO[C@@H]2O[C@H](COS(=O)(=O)O)[C@@H](O[C@H]3O[C@H](COS(=O)(=O)O)[C@@H](OS(=O)(=O)O)[C@H](OS(=O)(=O)O)[C@H]3OS(=O)(=O)O)[C@H](OS(=O)(=O)O)[C@H]2OS(=O)(=O)O)c1)c1ccc(-c2ccc(C(=O)Nc3cc(CO[C@@H]4O[C@H](COS(=O)(=O)O)[C@@H](O[C@H]5O[C@H](COS(=O)(=O)O)[C@@H](OS(=O)(=O)O)[C@H](OS(=O)(=O)O)[C@H]5OS(=O)(=O)O)[C@H](OS(=O)(=O)O)[C@H]4OS(=O)(=O)O)cc(CO[C@@H]4O[C@H](COS(=O)(=O)O)[C@@H](O[C@H]5O[C@H](COS(=O)(=O)O)[C@@H](OS(=O)(=O)O)[C@H](OS(=O)(=O)O)[C@H]5OS(=O)(=O)O)[C@H](OS(=O)(=O)O)[C@H]4OS(=O)(=O)O)c3)cc2)cc1 [EXAMPLE 18]	2.1	effect on human endothelial cell growth (human endothelial cell): enhance human endothelial cell growth
O=C(CCC(=O)Nc1cc(CO[C@@H]2O[C@H](COS(=O)(=O)O)[C@@H](O[C@@H]3O[C@H](COS(=O)(=O)O)[C@@H](OS(=O)(=O)O)[C@H](OS(=O)(=O)O)[C@H]3OS(=O)(=O)O)[C@H](OS(=O)(=O)O)[C@H]2OS(=O)(=O)O)cc(CO[C@@H]2O[C@H](COS(=O)(=O)O)[C@@H](O[C@@H]3O[C@H](COS(=O)(=O)O)[C@@H](OS(=O)(=O)O)[C@H](OS(=O)(=O)O)[C@H]3OS(=O)(=O)O)[C@H](OS(=O)(=O)O)[C@H]2OS(=O)(=O)O)c1)Nc1cc(CO[C@@H]2O[C@H](COS(=O)(=O)O)[C@@H](O[C@@H]3O[C@H](COS(=O)(=O)O)[C@@H](OS(=O)(=O)O)[C@H](OS(=O)(=O)O)[C@H]3OS(=O)(=O)O)[C@H](OS(=O)(=O)O)[C@H]2OS(=O)(=O)O)cc(CO[C@@H]2O[C@H](COS(=O)(=O)O)[C@@H](O[C@@H]3O[C@H](COS(=O)(=O)O)[C@@H](OS(=O)(=O)O)[C@H](OS(=O)(=O)O)[C@H]3OS(=O)(=O)O)[C@H](OS(=O)(=O)O)[C@H]2OS(=O)(=O)O)c1 [EXAMPLE 22, N,N'-Bis[3,5-bis(hepta-O-sulfato-β-D-cellobiosyloxymethyl)phenyl]succinamide Octacosasodium Salt]	2.0	
Cc1ccc(CO[C@@H]2O[C@H](COS(=O)(=O)O)[C@@H](OS(=O)(=O)O)[C@H](OS(=O)(=O)O)[C@H]2OS(=O)(=O)O)cc1NC(=O)CCC(=O)Nc1cc(CO[C@@H]2O[C@H](COS(=O)(=O)O)[C@@H](OS(=O)(=O)O)[C@H](OS(=O)(=O)O)[C@H]2OS(=O)(=O)O)ccc1C [EXAMPLE 25, N,N'-Bis[2-methyl-5-(2,3,4,6-tetra-O-suifato-β-D-glucopyranosyloxymethyl)phenyl]succinamide Octasodium Salt]		inhibition at 50 µg/mL ([1]; Sus scrofa, read-out: Porcine Smooth Muscle Cell Antiproliferation, % Inhibition at 50 μg/mL): 8%
Decanedioic Acid Bis{[3,5-bis(hepta-O-sulfato-β-D-cellobiosyloxymethyl}phenyl]amide} Octacosasodium Salt [EXAMPLE 14]	6.7	IC50 [1]: 3 µM
O=C(Nc1cc(CO[C@@H]2O[C@H](COS(=O)(=O)[O-])[C@@H](O[C@@H]3O[C@H](COS(=O)(=O)[O-])[C@H](OS(=O)(=O)[O-])[C@H](OS(=O)(=O)[O-])[C@H]3OS(=O)(=O)[O-])[C@H](OS(=O)(=O)[O-])[C@H]2OS(=O)(=O)[O-])cc(CO[C@@H]2O[C@H](COS(=O)(=O)[O-])[C@@H](O[C@@H]3O[C@H](COS(=O)(=O)[O-])[C@H](OS(=O)(=O)[O-])[C@H](OS(=O)(=O)[O-])[C@H]3OS(=O)(=O)[O-])[C@H](OS(=O)(=O)[O-])[C@H]2OS(=O)(=O)[O-])c1)c1ccc(-c2ccc(C(=O)Nc3cc(CO[C@@H]4O[C@H](COS(=O)(=O)[O-])[C@@H](O[C@@H]5O[C@H](COS(=O)(=O)[O-])[C@H](OS(=O)(=O)[O-])[C@H](OS(=O)(=O)[O-])[C@H]5OS(=O)(=O)[O-])[C@H](OS(=O)(=O)[O-])[C@H]4OS(=O)(=O)[O-])cc(CO[C@@H]4O[C@H](COS(=O)(=O)[O-])[C@@H](O[C@@H]5O[C@H](COS(=O)(=O)[O-])[C@H](OS(=O)(=O)[O-])[C@H](OS(=O)(=O)[O-])[C@H]5OS(=O)(=O)[O-])[C@H](OS(=O)(=O)[O-])[C@H]4OS(=O)(=O)[O-])c3)cc2)cc1.[Na+].[Na+].[Na+].[Na+].[Na+].[Na+].[Na+].[Na+].[Na+].[Na+].[Na+].[Na+].[Na+].[Na+].[Na+].[Na+].[Na+].[Na+].[Na+].[Na+].[Na+].[Na+].[Na+].[Na+].[Na+].[Na+].[Na+].[Na+] [EXAMPLE 16, Biphenyl-4,4'-dicarboxylic Acid Bis{[3,5-bis(hepta-O-sulfato-β-D-lactosyloxymethyl)phenyl]amide}Octacosasodium Salt]	2.2	IC50 [1]: 3.6 µM
O=C(Nc1cc(CO[C@@H]2O[C@H](COS(=O)(=O)O)[C@@H](O[C@@H]3O[C@H](COS(=O)(=O)O)[C@@H](OS(=O)(=O)O)[C@H](OS(=O)(=O)O)[C@H]3OS(=O)(=O)O)[C@H](OS(=O)(=O)O)[C@H]2OS(=O)(=O)O)cc(CO[C@@H]2O[C@H](COS(=O)(=O)O)[C@@H](O[C@@H]3O[C@H](COS(=O)(=O)O)[C@@H](OS(=O)(=O)O)[C@H](OS(=O)(=O)O)[C@H]3OS(=O)(=O)O)[C@H](OS(=O)(=O)O)[C@H]2OS(=O)(=O)O)c1)c1ccc(C(=O)Nc2cc(CO[C@@H]3O[C@H](COS(=O)(=O)O)[C@@H](O[C@@H]4O[C@H](COS(=O)(=O)O)[C@@H](OS(=O)(=O)O)[C@H](OS(=O)(=O)O)[C@H]4OS(=O)(=O)O)[C@H](OS(=O)(=O)O)[C@H]3OS(=O)(=O)O)cc(CO[C@@H]3O[C@H](COS(=O)(=O)O)[C@@H](O[C@@H]4O[C@H](COS(=O)(=O)O)[C@@H](OS(=O)(=O)O)[C@H](OS(=O)(=O)O)[C@H]4OS(=O)(=O)O)[C@H](OS(=O)(=O)O)[C@H]3OS(=O)(=O)O)c2)cc1 [EXAMPLE 23, N,N '-Bis[3,5-bis(hepta-O-sulfato-β-D-cellobiosyloxymethyl)phenyl]terephthalamide Octacosasodium Salt]	2.0	
